Positions of bridges follow the written chain, without caps; N, C: chain ends. No end group written: not given here.
Experiments:
hKv1.3 [1] = target: T1, hKv1.3 (Homo sapiens, UniProt P22001); conditions: 100 nM, hKv1.3 expressed in CHO cells; cited from earlier work
T1 construct: endogenous in cells
Protocol: As mentioned earlier, the Kd values of Tag-Vm24 and Untag-AnTx were very similar to those reported for the native toxins. […] The Kd value of the native Ts6 was determined using Xenopus oocytes expressing rat Kv1.3 (rKv1.3). […] Differences in the type of cell expression system as well as the use of a channel from di ...

rat Kv1.3 (rKv1.3) = conditions: rKv1.3 expressed in oocytes; cited from earlier work
Excerpt: Anuroctoxin (AnTx, α-KTx 6.12) is a small peptide consisting of 35 amino acids (4109 Da). […] Ts6 (α-KTx 12.1) consists of 40 amino acids with a molecular mass of 4506 Da. Ts6 was isolated from the venom of the scorpion Tytyus serrulatus and inhibits hKv1. ... || In the preliminary experiments to evaluate the biological activity of the recombinant toxins, peptide concentrations slightly higher than the reported Kd values for the native toxins were used.

hKv1.3 [2] = target: T1, hKv1.3; test: Whole-cell patch clamp of hKv1.3 currents in activated human T lymphocytes; assay type: cell-based; conditions: for time needed to reach equilibrium (steady-state) block of hKv1.3: 1 nM; for Hill coefficient (H): Hill equation fit of concentration-response on hKv1.3, n = 3-5; for Activity on hKv1.3: RP-HPLC fraction of His-tagged recombinant peptide, patch clamp; for recovery from block on perfusion with toxin-free solution: washout
Protocol: Human venous blood from anonymized healthy donors was obtained from a blood bank. Peripheral blood mononuclear cells (PBMCs) were isolated by density gradient centrifugation using Histopaque1077 (Cat. No 10771). The obtained cells were resuspended in RPMI 1640 medium containing 10% fetal calf serum, 100 μg/mL penicillin, 100 μg/mL streptomycin, and […], seeded at a density of 5 × 10^5 cells per ml in a 24-well culture plate and grown in a 5% CO2 incubator at 37 °C for 2–5 days. Phytohemagglutinin A (Cat. No. L1668) was added to the medium at concentrations of 5, 7, and 10 μg/mL to increase the voltage-gated potassium ion channel expression.
Electrophysiological measurements were performed by using the patch clamp technique in a whole-cell configuration on voltage-clamped cells using the Axon Multiclamp 700B amplifier and the Axon Digidata1440 digitizer; the Clampex 10.7 software was used for data acquisition (all from Molecular Devices, Sunnyvale, CA, USA). Micropipettes were pulled from GC150F-15 borosilicate capillaries (Harvard Apparatus Kent, Edenbridge, UK), resulting in 3–4 MΩ resistance in the bath solution. The extracellular solution (bath solution) contained 145 mM NaCl, 5 mM KCl, 1 mM MgCl2, 2.5 mM CaCl2, 5.5 mM glucose, and 10 mM HEPES, with a pH of 7.35 and an osmolarity between 302 and 308 mOsM/L. The pipette filling solution (intracellular) consisted of 140 mM KF, 2 mM MgCl2, 1 mM CaCl2, 10 mM HEPES, and 11 mM EGTA, with a pH of 7.22 and an osmolarity of 295 mOsM/L. When the toxins were dissolved in bath solution at different molar concentrations, they were supplemented with 0.1 mg/mL bovine serum albumin (BSA). To record hKv1.3 in activated human T lymphocytes (Kv1.3 overexpression), 15 ms-long depolarizing pulses were applied at +50 mV from a holding potential of −120 mV every 15 s. Current traces were low-pass filtered by the analog four-pole Bessel filters of the amplifiers, and the sampling frequency was set at 20 kHz, which was at least twice that of the filter cutoff frequency. The control and test solutions were perfused into the cell through a gravity flow perfusion system. The excess bath solution was constantly removed with vacuum suction.
The effect of the toxin at a given molar concentration was calculated as the remaining current fraction (RCF = I/I0, where I0 is the peak current in the absence of the toxin and I is the peak current at the equilibrium block at a given toxin concentration). The data points on the dose-response curves represent the mean of 3–5 individual measurements. The data points were fitted with the Hill equation, RCF=KdH/KdH+toxin^H where [toxin] is the concentration of the toxin and H is the Hill coefficient. The best fit curve gave the Kd value of a given toxin.

Kv1.3 channel = conditions: ref 11 (charybdotoxin), 12 (noxiustoxin), 13 (Vm24), 14 (ShK), 15 (margatoxin), 16 (HsTx1); cited from earlier work
Excerpt: Voltage-gated potassium (Kv) channels regulate the selective efflux of K^+ through the plasma membrane, thereby shaping the action potentials in excitable cells and regulating many other cellular functions in non-excitable cells. The Kv channel family includes 12 subfamilies (Kv1-Kv12). The Kv1 (Shaker) subfamily consists of eight voltage-gated potassium channels belonging to the delayed rectifier class (Kv1.1–Kv1.8). Of this Kv subfamily, the Kv1.3 channel is mainly expressed in neurons and immune cells, and therefore, channel inhibition in these cells may be useful in the t ...

T1 sequence (P22001 whole entry): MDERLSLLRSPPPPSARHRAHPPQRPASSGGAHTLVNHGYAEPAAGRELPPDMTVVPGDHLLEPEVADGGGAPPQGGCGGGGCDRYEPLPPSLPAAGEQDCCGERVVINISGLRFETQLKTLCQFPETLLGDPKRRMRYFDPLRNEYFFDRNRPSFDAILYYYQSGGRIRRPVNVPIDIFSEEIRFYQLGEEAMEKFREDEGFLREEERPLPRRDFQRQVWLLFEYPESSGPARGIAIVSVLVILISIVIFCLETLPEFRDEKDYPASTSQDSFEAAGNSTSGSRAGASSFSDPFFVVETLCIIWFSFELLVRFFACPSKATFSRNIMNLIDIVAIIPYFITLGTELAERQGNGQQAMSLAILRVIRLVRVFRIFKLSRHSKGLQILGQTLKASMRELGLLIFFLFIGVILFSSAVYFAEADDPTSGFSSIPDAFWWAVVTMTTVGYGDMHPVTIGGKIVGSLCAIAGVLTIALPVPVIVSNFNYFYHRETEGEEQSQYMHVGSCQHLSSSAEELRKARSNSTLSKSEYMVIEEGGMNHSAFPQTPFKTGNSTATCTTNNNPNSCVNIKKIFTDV

Molecule	Hill coefficient (H) (hKv1.3 [2])	Activity on hKv1.3 (hKv1.3 [2])	recovery from block on perfusion with toxin-free solution (hKv1.3 [2])	concentration range in which the toxin blocks the Kv1.3 channel (Kv1.3 channel)	also measured
maurotoxin (VSCTGSKDCYAPCRKQTGCPNAKCINKSCKCYGC; UniProt P80719 1-34, looked up)					sensitivity of hKv1.3 to the toxin (hKv1.3 [1]): almost insensitive; Kd (rat Kv1.3 (rKv1.3)): 180 nM
CSCC[C@@H]1NC(=O)[C@@H]2CSSC[C@H](NC(=O)[C@H](CCC(=O)O)NC(=O)[C@H](CCCCN)NC(=O)[C@H](CCC(N)=O)NC(=O)[C@H](CCCCN)NC(=O)[C@H](CC(=O)O)NC(=O)[C@H](CC(=O)O)NC(=O)[C@H](CC(=O)O)NC(=O)[C@H](CC(=O)O)NC(=O)[C@H](Cc3c[nH]cn3)NC(=O)[C@H](Cc3c[nH]cn3)NC(=O)[C@H](Cc3c[nH]cn3)NC(=O)[C@H](Cc3c[nH]cn3)NC(=O)[C@H](Cc3c[nH]cn3)NC(=O)[C@H](Cc3c[nH]cn3)NC(=O)[C@H](CCC(N)=O)NC(=O)[C@H](CC(C)C)NC(=O)[C@H](Cc3ccccc3)NC(=O)[C@@H](N)CCC(=O)O)C(=O)N[C@@H]([C@@H](C)O)C(=O)NCC(=O)N3CCC[C@H]3C(=O)N[C@@H](CCC(N)=O)C(=O)N[C@@H](Cc3c[nH]cn3)C(=O)N[C@H]3CSSC[C@H](NC(=O)[C@H](CCCCN)NC(=O)[C@H](CCCNC(=N)N)NC(=O)[C@H](CC(N)=O)NC1=O)C(=O)N[C@@H](CCCCN)C(=O)N[C@H]1CSSC[C@H](NC(=O)[C@H](Cc4ccccc4)NC(=O)[C@H](CC(N)=O)NC(=O)[C@H]([C@@H](C)O)NC3=O)C(=O)N[C@@H](CCCNC(=N)N)C(=O)N[C@@H](CCCCN)C(=O)N[C@@H](CC(N)=O)C(=O)N[C@@H](CCCCN)C(=O)N[C@@H](CSSC[C@@H](C(=O)N[C@@H](CCCCN)C(=O)O)NC(=O)[C@H](CC(N)=O)NC(=O)[C@H](Cc3ccccc3)NC1=O)C(=O)N[C@@H]([C@@H](C)O)C(=O)N[C@@H](Cc1c[nH]cn1)C(=O)NCC(=O)N[C@@H](CCCCN)C(=O)N2 [Tag-AnTx]	0.91	Positive	full recovery		time needed to reach equilibrium (steady-state) block of hKv1.3 (hKv1.3 [2]): ~ 2.5 min
noxiustoxin: toxin that blocks the Kv1.3 channel (TIINVKCTSPKQCSKPCKELYGSSAGAKCMNGKCKCYNN; UniProt P08815 1-39, looked up)				nanomolar range	
CSCC[C@@H]1NC(=O)[C@@H]2CSSC[C@H](NC(=O)[C@H](CCC(=O)O)NC(=O)[C@H](CCCCN)NC(=O)[C@@H](N)CCC(N)=O)C(=O)N[C@@H]([C@@H](C)O)C(=O)NCC(=O)N3CCC[C@H]3C(=O)N[C@@H](CCC(N)=O)C(=O)N[C@@H](Cc3c[nH]cn3)C(=O)N[C@H]3CSSC[C@H](NC(=O)[C@H](CCCCN)NC(=O)[C@H](CCCNC(=N)N)NC(=O)[C@H](CC(N)=O)NC1=O)C(=O)N[C@@H](CCCCN)C(=O)N[C@H]1CSSC[C@H](NC(=O)[C@H](Cc4ccccc4)NC(=O)[C@H](CC(N)=O)NC(=O)[C@H]([C@@H](C)O)NC3=O)C(=O)N[C@@H](CCCNC(=N)N)C(=O)N[C@@H](CCCCN)C(=O)N[C@@H](CC(N)=O)C(=O)N[C@@H](CCCCN)C(=O)N[C@@H](CSSC[C@@H](C(=O)N[C@@H](CCCCN)C(=O)O)NC(=O)[C@H](CC(N)=O)NC(=O)[C@H](Cc3ccccc3)NC1=O)C(=O)N[C@@H]([C@@H](C)O)C(=O)N[C@@H](Cc1c[nH]cn1)C(=O)NCC(=O)N[C@@H](CCCCN)C(=O)N2 [Untag-AnTx]					Kd (hKv1.3 [2]; whole-cell patch clamp, activated human peripheral T lymphocytes, 15 ms pulses to +50 mV from -120 mV every 15 s, Hill equation fitted to remaining current fraction, mean ± SEM, n = 3-5, read-out: Kd for block of hKv1.3): 0.73 nM
margatoxin (TIINVKCTSPKQCLPPCKAQFGQSAGAKCMNGKCKCYPH; UniProt P40755 1-39, looked up)				picomolar range	
EFLQHHHHHHIEGRAAAISCVGSPECPPKCRAQGCKNGKCMNRKCKCYYC (disulfide 20-40, 26-45, 30-47, 35-50) [Tag-Vm24]	0.92	Positive	not reversible		time needed to achieve equilibrium block of hKv1.3 (hKv1.3 [2]; 10 pM): ~ 25 min; time needed to reach equilibrium (steady-state) block of hKv1.3 (hKv1.3 [2]): ~ 5 min
EFHHHHHHDDDDKWCSTCLDLACGASRECYDPCFKAFGRAHGKCMNNKCRCYT (disulfide 15-18, 23-44, 29-49, 33-51) [Tag-Ts6]	1.06	Positive	complete recovery		block of more than 50% of the Kv1.3 current (hKv1.3 [2]; 100 nM, 6x-His-tagged peptide): could not be replicated; time of onset of equilibrium block and complete recovery of peak current (hKv1.3 [2]; progressively increasing concentrations): a few seconds
charybdotoxin				nanomolar range	

— publication PMC9697831 (Journal of Fungi, 2022)
